A short description of the series: Pharmacokinetics after 21 days dosing in the efficacy study (plasma, tumor and brain concentrations; plasma AUC at steady state), Example 14. The class given is in vivo, female BALB/c nude mice. Here is the method: Agents were tested in the A375 human melanoma xenografts. Compound 26 and Compound 141 were administered to BALB/c nude mice bearing A375 tumors from PG-DO and dosed via PO twice a day (BID) or third a day (TIP) or dosed P daily (QD) from PG-D. Dabrafenib was administered to BALB/c nude mice bearing A375 tumors from PG-D1 and dosed via P daily (QD). Compound 26 was dosed at 1.5 mg/kg (QD), 2 mg/kg (TID), 3 mg/kg (BID), 6 mg/kg (QD) and 10 mg/kg (BID) for 21 days. Compound 141 was dosed at 0.75 mg/kg (BID), 1 mg/kg (TID), 1.5 mg/kg (BID), 3 mg/kg (QD) and 5 mg/kg (BID) for 21 days. Dabrafenib was dosed at 100 mg/kg for 21 days. This study was non-GLP.
The plasma samples were collected at predetermined time points for PK analysis. For non-termination plasma collection: the blood samples were collected into the 1.5 mL Eppendorf tubes containing 3 μL of 0.5 M EDTA-K2. And then the anticoagulant blood samples were centrifuged at 2,500 g at 4° C. for 15 minutes. For termination plasma collection: the mice was euthanized at predetermined time points post the treatment, the blood samples were collected into the 1.5 mL Eppendorf tubes containing 15 μL of 0.5 M EDTA-K2. And then the anticoagulant blood samples were centrifuged at 2,500 g at 4° C. for 15 minutes. The plasma samples were separated into 2 aliquots. The 1st was used for PK analysis, and the 2nd was served as backup.
The tumor samples were collected at predetermined time points for PK and WB analysis. The tumor was dissected out and split into 3 parts. The 1st part was used for PK analysis, the 2nd part was used for WB analysis and the last one was used as backup for the study. The samples were transferred into pre-labeled tubes and quickly froze in liquid nitrogen within 2 minutes after dissection. The samples were stored at −80° C. before analysis.
The brain samples were collected at predetermined time points for PK and potential WB analysis. The brain was dissected out and split into 3 parts (left brain, right brain upper and right brain lower), the left brain was used for PK, the right brain upper was used for WB and the last one was used as the backup for the study. The samples were transferred into pre-labeled tubes and quickly froze in liquid nitrogen within 2 minutes after dissection. The samples were stored at −80° C. before analysis.
The harvested plasma and tumor samples were processed for pharmacokinetics analysis by LC-MS/MS with a concentration range of 1.00-1,000 ng/mL for dabrafenib in plasma and 0.0500-50 ng/mL in tumor and brain homogenate, 5.00-10,000 ng/mL for Compound 141 in plasma and 0.200~200 ng/ml in tumor and brain homogenate. 20.0~20,000 ng/mL for Compound 26 in plasma and 0.5~500 ng/mL for Compound 26 tumor and brain homogenate.
Dabrafenib, Compound 26 and Compound 141 in female BALB/c nude mice plasma (K2-EDTA), tumor and brain homogenate were analyzed by LC-MS/MS (Triple Quad 6500+ Low Mass). Verapamil (5 ng/mL) in acetonitrile: methanol (V: V=95:5) was used as the internal standard for Dabrafenib, Compound 26 and Compound 141 in plasma. Verapamil (0.5 ng/mL) in acetonitrile: methanol (V: V=95:5) was used as the internal standard for Dabrafenib, Compound 26 and Compound 141 in tumor and brain homogenate.
An aliquot of 10 μL unknown sample, calibration standard, quality control, dilute quality control, single blank and double blank samples were added to the 96-well plate. Each sample for Dabrafenib, Compound 26 and Compound 141 in plasma (except the double blank) was quenched with 200 μL IS respectively (double blank sample was quenched with 200 μL ACN: MeOH (V: V=95:5)); each sample for Dabrafenib, Compound 26 and Compound 141 in tumor and brain(except the double blank) was quenched with 100 μL IS respectively (double blank sample was quenched with 100 μL ACN: MeOH (V: V=95:5)); and then the mixture was vortex-mixed for 5 min at 800 rpm and centrifuged for 15 min at 3220 g (4000 rpm), 4° C. […]

Where two headings read alike, the source gives them in different places.

The text below walks through data of patent US20260297060A1, “COMPOUNDS FOR THE DEGRADATION OF MUTANT BRAF” (C4 THERAPEUTICS, INC., priority 2023, published 2026).

Usually AUC stands for concentration integrated over time. As for `CC(C)(C)c1nc(-c2cccc(NS(=O)(=O)c3c(F)cccc3F)c2F)c(-c2ccnc(N)n2)s1` [Dabrafenib, dabrafenib, reference compound], the “Concentration in Brain” value (100 mg/kg p.o. QD x 21 days, 24 h, BQL: below the lower limit of quantitation) is reported as “BQL^a”. Moreover, the concentration at 4 h was determined as 3.59 ± 0.558 ng/g (mouse, brain, po, 100 mg/kg p.o. QD x 21 days, mean ± SEM, read-out: Concentration in Brain); 54.4 ± 7.02 ng/mL (mouse, plasma, po, 100 mg/kg p.o. QD x 21 days, mean ± SEM, read-out: Concentration in Plasma); 137 ± 7.51 ng/g (mouse, tumor, po, 100 mg/kg p.o. QD x 21 days, mean ± SEM, read-out: Concentration in Tumor). Where the note is “mouse, plasma, po, 100 mg/kg p.o. QD x 21 days, 0.25 h, mean ± SEM”, this compound showed a concentration at 0.25 h of 38700 ± 2110 ng/mL. In addition, where the note is “mouse, plasma, po, 100 mg/kg p.o. QD x 21 days, 0.5 h, mean ± SEM”, the concentration at 0.5 h was found to be 25700 ± 5690 ng/mL. The same compound came in with a concentration at 1 h (mouse, plasma, po, 100 mg/kg p.o. QD x 21 days, 1 h, mean ± SEM) of 3270 ± 443 ng/mL. The same compound yielded a concentration at 2 h (mouse, plasma, po, 100 mg/kg p.o. QD x 21 days, 2 h, mean ± SEM) of 444 ± 129 ng/mL. Moreover, the concentration at 8 h (mouse, plasma, po, 100 mg/kg p.o. QD x 21 days, 8 h, mean ± SEM) came out at 55.4 ± 4.19 ng/mL. The concentration at 10 h (mouse, plasma, po, 100 mg/kg p.o. QD x 21 days, 10 h, mean ± SEM) is 24 ± 6.86 ng/mL. The concentration at 24 h by setting is: (mouse, plasma, po, 100 mg/kg p.o. QD x 21 days, 24 h, read-out: Concentration in Plasma) 2.27 ng/mL; (mouse, tumor, po, 100 mg/kg p.o. QD x 21 days, 24 h, mean ± SEM, read-out: Concentration in Tumor) 1.43 ± 0.191 ng/g. Moreover, the AUC (mouse, plasma, po, 100 mg/kg p.o. QD × 21 days, read-out: Plasma AUC at steady state (Day 21), Average) worked out at 18100 ng·h/mL.
